Reference: patent US5272054A, “Assay by enzyme-catalyzed isotopic exchange” (Syntex (U.S.A.) Inc., priority 1992, dated 1993)

Legend:
[1] = test system: D-lactate dehydrogenase; assay: Isotopic exchange assay using D-lactate dehydrogenase: specificity; format: biochemical; details: enzyme from Lactobacillus plantarum; for interference with assay results: D-lactate / pyruvate assay
Description: D-lactate and pyruvate in plasma are determined using D-lactate dehydrogenase from Lactobacillus leichmannii (Sigma or Boehringer-Mannheimbiochemicals) obtained by the procedure of Brandt, R. B. "Methods in Enzymology", vol. 89, page 35 (Academic Press, New York, 1982), pages 35-40 of which are incorporated herein by reference. The assay will detect D-lactate concentrations in plasma from 0.006 to 1.2 mM and at higher concentrations in food or microbiological samples. If the enzyme is from Lactobacillus plantarum obtained according to Dennis, D.; Kaplan, N. O. J. Bio.

[2] = test system: homoserine dehydrogenase; assay: Isotopic exchange assay using homoserine dehydrogenase: specificity; format: biochemical, Baker's Yeast; details: for interference with assay results: homoserine / aspartic-β-semialdehyde assay
Description: Homoserine and aspartic-β-semialdehyde are determined using homoserine dehydrogenase from Baker's Yeast (Anheuser-Busch) obtained by the procedure of Black, S. "Methods in Enzymology", vol. V, page 820 (Academic Press, New York, 1962), pages 824-827 of which are incorporated herein by reference. […] Other non-interfering substances will include 3-aminopropanol, γ-hydroxybutyrate, acetaldehyde, DL-threonine, DL-serine, and DL-homocysteine. DL-glutamic γ-semialdehyde will react at 1% of the rate of aspartic-β-semialdehyde.

[3] = test system: ω-hydroxydecanoate dehydrogenase; assay: Isotopic exchange assay using ω-hydroxydecanoate dehydrogenase: specificity; format: biochemical, rabbit; details: for relative rate of reaction: value in brackets after the substrate; for interference with assay results: 10-hydroxydecanoate / 10-oxodecanoate assay
From the text: The enzyme obtained will be contaminated to some degree with L-lactate dehydrogenase (I.U.B. 1.1.1.27).

[4] = test system: soluble 17β-hydroxysteroid dehydrogenase; assay: Isotopic exchange assay using 17β-hydroxysteroid dehydrogenase: specificity; format: biochemical, human
Description: Estradiol-17β and estrone are determined using soluble 17β-hydroxysteroid dehydrogenase from human term placenta obtained by the procedure of Jarabak, J. "Methods in Enzymology", vol.

[5] = test system: fructuronate reductase; assay: Isotopic exchange assay using fructuronate reductase: specificity; format: biochemical, Escheria coli K-12 strain S 3000 (Hfr H); details: for interference with assay results: D-mannonate / D-fructuronate assay
Description: D-mannonate and D-fructuronate are determined using fructuronate reductase from Escheria coli K-12 strain S 3000 (Hfr H) obtained by the procedure of Portalier, R.; Stoeber, F. "Methods in Enzymology", vol. 89, page 210 (Academic Press, New York, 1982), pages 210-218 of which are incorporated herein by reference. […] D-tagaturonate and D-altronate are 20% as active as D-fructuronate and D-mannonate, respectively.

[6] = test system: 15-hydroxyprostaglandin dehydrogenase; assay: Isotopic exchange assay using 15-hydroxyprostaglandin dehydrogenase: specificity; format: biochemical, pig
Description: 11α,15-dihydroxy-9-oxoprost-13-enoate and 11α-hydroxy-9, 15-dioxoprost-13-enoate are determined using 15-hydroxyprostaglandin dehydrogenase from pig lung obtained by the procedure of Anggard, E.; Samuelsson, B. "Methods in Enzymology", vol. 14, page 215 (Academic Press, New York, 1969), pages 215-219 of which are incorporated herein by reference. The assay will detect most 15-hydroxy or 15-oxo-prostaglandins except those containing the dienone chromophore such as prostaglandin B compounds and their 19-hydroxylated derivatives.

[7] = test system: 21-hydroxysteroid dehydrogenase; assay: Isotopic exchange assay using 21-hydroxysteroid dehydrogenase: specificity; format: biochemical, sheep
Description: Cortisol and 21-dehydrocortisol are determined using AND dependent 21-hydroxysteroid dehydrogenase from sheep liver obtained by the procedure of Monder, C.; Furfine, C. S. "Methods in Enzymology", vol. […] 21-hydroxy-derivatives of cortisol, cortisone, corticosterone, 11-deoxycortisol, Δ^1 -cortisone, Δ^1 -cortisol, 11-deoxycorticosterone, and 9α-fluorocortisol will all be assayed using this enzyme.

Molecule: CCCC[C@@H](O)C(=O)O
- interference with assay results [1]: will not interfere with the assay results

Molecule: CC(C)C[C@@H](O)C(=O)O
- interference with assay results [1]: will not interfere with the assay results

Molecule: NC(CCC=O)C(=O)O (racemic) [DL-glutamic γ-semialdehyde]
- rate of reaction relative to aspartic-β-semialdehyde [2]: 1%

Molecule: NC(CCS)C(=O)O (racemic) [DL-homocysteine]
- interference with assay results [2]: non-interfering

Molecule: NC(CO)C(=O)O (racemic) [DL-serine]
- interference with assay results [2]: non-interfering

Molecule: C[C@@H](O)[C@H](N)C(=O)O (racemic) [DL-threonine]
- interference with assay results [2]: non-interfering

Molecule: CC[C@@H](O)C(=O)O [2-hydroxy-D-butyrate]
- interference with assay results [1]: will not interfere with the assay results

Molecule: NCCCO [3-aminopropanol]
- interference with assay results [2]: non-interfering

Molecule: O=C(O)CCCCCCCCCO [10-hydroxycaproate]
- relative rate of reaction [3]: 0.90

Molecule: O=C(O)CCCCCCCCCCO [11-hydroxy undecanoate]
- relative rate of reaction [3]: 100

Molecule: C[C@]12CC[C@@H]3c4ccc(O)cc4CC[C@H]3[C@@H]1C[C@H](O)C2 [16β-estradiol]
- interference with assay results ([4]; estradiol-17β / estrone assay): will not interfere with the assay results

Molecule: C[C@H](O)[C@H]1CC[C@H]2[C@@H]3CCC4=CC(=O)CC[C@]4(C)[C@H]3CC[C@]12C [20α-hydroxy derivative]
- rate of reaction relative to estrone [4]: one-fiftieth

Molecule: O=C(CO)[C@@H](O)[C@H](O)[C@H](O)[C@H](O)CO [D-altro-heptulose]
- interference with assay results [5]: will not interfere with assay results

Molecule: O=C[C@@H](O)[C@H](O)[C@H](O)CO [D-arabinose]
- interference with assay results [5]: will not interfere with assay results

Molecule: O=C(CO)[C@@H](O)[C@H](O)[C@H](O)CO [D-fructose]
- interference with assay results [5]: will not interfere with assay results

Molecule: O=C[C@H](O)[C@@H](O)[C@@H](O)[C@H](O)CO [D-galactose]
- interference with assay results [5]: will not interfere with assay results

Molecule: O=C[C@H](O)[C@@H](O)[C@H](O)[C@H](O)CO [D-glucose]
- interference with assay results [5]: will not interfere with assay results

Molecule: O=C[C@@H](O)[C@@H](O)[C@H](O)[C@H](O)C(O)CO (stereo partly drawn) [D-manno-heptose]
- interference with assay results [5]: will not interfere with assay results

Molecule: O=C[C@@H](O)[C@@H](O)[C@H](O)[C@H](O)CO [D-mannose]
- interference with assay results [5]: will not interfere with assay results

Molecule: O=C[C@H](O)[C@H](O)[C@H](O)CO [D-ribose]
- interference with assay results [5]: will not interfere with assay results

Molecule: O=C(CO)[C@H](O)[C@H](O)CO [D-ribulose]
- interference with assay results [5]: will not interfere with assay results

Molecule: O=C(CO)[C@H](O)[C@@H](O)[C@H](O)CO [D-sorbose]
- interference with assay results [5]: will not interfere with assay results

Molecule: O=C(CO)[C@@H](O)[C@@H](O)[C@H](O)CO [D-tagatose]
- interference with assay results [5]: will not interfere with assay results

Molecule: O=C[C@H](O)[C@@H](O)[C@H](O)CO [D-xylose]
- interference with assay results [5]: will not interfere with assay results

Molecule: CC(C)[C@@H](O)C(=O)O [Disovalerate]
- interference with assay results [1]: will not interfere with the assay results

Molecule: O=C[C@H](O)[C@@H](O)[C@@H](O)CO [L-arabinose]
- interference with assay results [5]: will not interfere with assay results

Molecule: C[C@H](O)C(=O)O [L-lactate]
- interference with assay results [1]: will not interfere with the assay results

Molecule: O=C[C@H](O)[C@H](O)[C@@H](O)CO [L-lyxose]
- interference with assay results [5]: will not interfere with assay results

Molecule: O=C[C@@H](O)[C@H](O)[C@@H](O)CO [L-xylose]
- interference with assay results [5]: will not interfere with assay results

Molecule: CC(=O)[C@H]1CC[C@H]2[C@@H]3CCC4=CC(=O)CC[C@]4(C)[C@H]3CC[C@]12C [Progesterone]
- rate of reaction relative to estrone [4]: one-fiftieth

Molecule: CC=O [acetaldehyde]
- interference with assay results [2]: non-interfering

Molecule: CCO [ethanol]
- interference with assay results [3]: will not interfere with assay results

Molecule: NCCO [ethanolamine]
- interference with assay results [3]: will not interfere with assay results

Molecule: Cc1ncc(CO)c(CO)c1O [pyridoxine]
- interference with assay results [3]: will not interfere with assay results

Molecule: N[C@@H](CO)C(=O)O [serine]
- interference with assay results [3]: will not interfere with assay results

Molecule: C[C@@H](O)[C@H](N)C(=O)O [threonine]
- interference with assay results [3]: will not interfere with assay results

Molecule: nicotinamide adenine dinucleotide phosphate [NAD(P)]
- replacement of NAD as cofactor [1]: will not replace NAD
- substitution for NAD as cofactor [5]: will not substitute for AND
- replacement of NAD as cofactor [6]: will not replace NAD
- replacement of NAD as cofactor [7]: will not replace NAD
